Among the data in US10000473B2, “Indazole derivatives useful as glucagon receptor antagonists” (Janssen Pharmaceutica NV, priority 2016, dated 2018) are Ki values, retold here.

In general, Ki refers to a measure of affinity in units of concentration, obtained from inhibition or displacement.

Several values for one entry are separate records, joined by “and”; a condition that tells them apart may be missing. Equal entries are not always repeated.

For the experiment, the target named is T1, human GCGR (Homo sapiens, UniProt P47871).
T1 construct: expressed in transfected cells; host or cells: HEK293 (hGluc-1HEK), pcDNA3.1, G418 selection
T1 sequence (P47871 26-477): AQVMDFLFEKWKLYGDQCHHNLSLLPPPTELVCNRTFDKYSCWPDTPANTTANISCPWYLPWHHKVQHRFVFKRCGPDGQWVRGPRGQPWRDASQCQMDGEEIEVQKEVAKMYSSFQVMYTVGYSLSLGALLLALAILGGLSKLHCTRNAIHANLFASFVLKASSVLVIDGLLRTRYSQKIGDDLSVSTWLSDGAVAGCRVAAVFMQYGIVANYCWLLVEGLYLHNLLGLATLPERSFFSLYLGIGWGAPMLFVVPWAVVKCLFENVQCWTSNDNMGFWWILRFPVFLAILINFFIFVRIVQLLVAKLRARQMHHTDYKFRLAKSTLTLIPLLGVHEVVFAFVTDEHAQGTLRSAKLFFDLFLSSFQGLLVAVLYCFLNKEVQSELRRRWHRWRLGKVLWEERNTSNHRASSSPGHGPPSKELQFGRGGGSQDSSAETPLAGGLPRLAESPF
Nature of the experiment: Cellular functional assay, cAMP readout (glucagon-stimulated cAMP, LANCE TR-FRET). Conditions: HEK293 cells stably expressing full-length human GCGR; glucagon 100 pM; IC50 converted to Ki; read-out: Inhibition of cAMP Ki. It counts as cell-based. On the technique in general: In TR-FRET formats the signal depends on donor and acceptor labels being close together.
In the case of `Cc1cc(C(F)(F)F)ccc1-c1cc2cnn(C(CC(C)C)c3ccc(C(=O)NCCC(=O)O)nc3)c2cc1Cl` (centres unmarked) [Compound #146, 3-[[5-[1-[6-Chloro-5-[2-methyl-4-(trifluoromethyl)phenyl]indazol-1-yl]-3-methyl-butyl]pridine-2-carbonyl]amino]propanoic acid], the Ki was determined as 0.16 µM.
In the case of `CC(C)CC(c1ccc(C(=O)NCCC(=O)O)cc1)n1cc2c(Cl)c(-c3ccc(C(F)(F)F)cc3)ccc2n1` (centres unmarked) [Compound #147, 3-(4-(1-(4-Chloro-5-(4-(trifluoromethyl)phenyl)-2H-indazol-2-yl)-3-methylbutyl)benzamido)prop-anoic acid], the Ki turned out to be 0.04 µM.
Regarding `CC(C)CC(c1ccc(C(=O)NCCC(=O)O)cc1)n1ncc2cc(-c3cccc4ccccc34)ccc21` (centres unmarked) [compound 165], the Ki worked out at 1.35 µM.
In the case of `O=C(O)CCNC(=O)c1ccc(C(c2ccc(C(F)(F)F)cc2)n2ncc3cc(-c4ccc(C(F)(F)F)cc4)ccc32)cc1` (centres unmarked) [Compound #101, 3-(4-((4-(Trifluoromethyl)phenyl)(5-(4-(trifluoromethyl)phenyl)-1H-indazol-1-yl)methyl)benzamido)propanoic acid] it was 0.8 µM.
Regarding `COc1c(-c2ccc(C(F)(F)F)cc2C)ccc2nn(C(CC(C)C)c3ccc(C(=O)NCCC(=O)O)nc3)cc12` (centres unmarked) [Compound #236, 3-(5-(1-(4-Methoxy-5-(2-methyl-4-(trifluoromethyl)phenyl)-2H-indazol-2-yl)-3-methylbutyl)picolinamido)propanoic acid], the inhibition constant Ki turned out to be 0.012 µM.
On to `Cc1cc(Cl)ccc1-c1ccc2nn(C(CC(C)(C)C)c3ccc(C(=O)NCCC(=O)O)nc3)cc2c1` (centres unmarked) [compound 257], for which the Ki is 0.026 µM.
The figure for `O=C(O)CCNC(=O)c1ccc(C(CCC2CCC2)n2cc3cc(-c4ccc(C(F)(F)F)cc4)ccc3n2)cc1` (centres unmarked) [Compound #215, 3-(4-(3-Cyclobutyl-1-(5-(4-(trifluoromethyl)phenyl)-2H-indazol-2-yl)propyl)benzamido)propanoic acid] is 0.21 µM; for `Cc1cc2c(cnn2C(CC(C)C)c2ccc(C(=O)NCCC(=O)O)cc2)cc1-c1ccc(C(F)(F)F)cc1` (centres unmarked) [Compound #25, 3-[[4-[3-Methyl-1-[6-methyl-5-[4-(trifluoromethyl)phenyl]indazol-1-yl]butyl]benzoyl]amino]propanoic acid] it is 0.102 µM; for `CC(C)CCC(c1ccc(C(=O)NCCC(=O)O)cc1)n1ncc2cc(-c3ccc(C(F)(F)F)cc3)ccc21` (centres unmarked) [compound 59] it is 0.155 µM.
The figure for `COc1c(-c2ccc(C(F)(F)F)cc2Cl)ccc2nn(C(CC(C)C)c3ccc(C(=O)NCCC(=O)O)cc3)cc12` (centres unmarked) [Compound #137, 3-(4-(1-(5-(2-Chloro-4-(trifluoromethyl)phenyl)-4-methoxy-2H-indazol-2-yl)-3-methylbutyl)benzamido)propanoic acid] is 0.022 µM; for `COc1c(-c2ccc(C(F)(F)F)cc2C)ccc2c1cnn2C(CC(C)C)c1ccc(C(=O)NCCC(=O)O)nc1` (centres unmarked) [Compound #213, 3-(5-(1-(4-Methoxy-5-(2-methyl-4-(trifluoromethyl)phenyl)-1H-indazol-1-yl)-3-methylbutyl)picolinamido)propanoic acid] it is 0.075 µM.
The figure for `Cc1ccc2cc(-c3ccc4c(cnn4C(CC(C)C)c4ccc(C(=O)NCCC(=O)O)cc4)c3)sc2c1` (centres unmarked) [compound 62] is 0.23 µM; for `O=C(O)CCNC(=O)c1ccc(C(CCC(F)(F)F)n2ncc3cc(-c4ccc(F)cc4Cl)ccc32)cc1` (centres unmarked) [Compound #223, 3-(4-(1-(5-(2-Chloro-4-fluorophenyl)-1H-indazol-1-yl)-4,4,4-trifluorobutyl)benzamido)propanoic acid] it is 0.95 µM; for `Cc1cc2nn(C(CC(C)C)c3ccc(C(=O)NCCC(=O)O)cc3)cc2cc1-c1ccc(C(F)(F)F)cc1Cl` (centres unmarked) [Compound #95, 3-[[4-[1-[5-[2-Chloro-4-(trifluoromethyl)phenyl]-6-methyl-indazol-2-yl]-3-methyl-butyl]benzoyl]amino]propanoic acid] it is 0.052 µM.
Consider `CC(C)CC(c1ccc(C(=O)NCCC(=O)O)cc1)n1cc2cc(-c3cc4cc(F)ccc4s3)ccc2n1` (centres unmarked) [compound 129], for which the Ki is 0.088 µM.
On to `Cc1c(-c2ccc(C(C)(C)C)cc2)ccc2c1cnn2C(CC(C)C)c1ccc(C(=O)NCCC(=O)O)cc1` (centres unmarked) [Compound #47, 3-(4-(1-(5-(4-(tert-Butyl)phenyl)-4-methyl-1H-indazol-1-yl)-3-methylbutyl)benzamido)propanoic acid], for which the Ki was found to be 0.092 µM.
Consider `CCCC(c1ccc(C(=O)NCCC(=O)O)cc1)n1ncc2cc(-c3ccc(C(F)(F)F)cc3)ccc21` (centres unmarked) [compound 60], for which the Ki worked out at 0.3 µM.
`O=C(O)CCNC(=O)c1ccc(C(CC2CCCC2)n2cc3cc(-c4ccc(C(F)(F)F)cc4)ccc3n2)cn1` (centres unmarked) [compound 188]: the inhibition constant (Ki) came out at 0.165 µM.
The figure for `CC(C)CC(c1ccc(C(=O)NCCC(=O)O)nc1)n1cc2cc(-c3ccc(C(C)(C)C)cc3)ccc2n1` (centres unmarked) [Compound #2] is 0.7 µM; for `Cc1c(-c2ccc(Cl)cc2Cl)ccc2c1cnn2C(CC(C)C)c1ccc(C(=O)NCCC(=O)O)cc1` (centres unmarked) [Compound #127, 3-(4-(1-(5-(2,4-Dichlorophenyl)-4-methyl-1H-indazol-1-yl)-3-methylbutyl)benzamido)propanoic acid] it is 0.31 µM; for `Cc1cc(C(F)(F)F)ccc1-c1ccc2nn(C(CC(C)C)c3ccc(C(=O)NCCC(=O)O)nc3)cc2c1` (centres unmarked) [Compound #19] it is 0.047 µM and 0.049 µM.
Regarding `CCOc1c(-c2ccc(C)cc2C)ccc2nn(C(CC(C)C)c3ccc(C(=O)NCCC(=O)O)nc3)cc12` (centres unmarked) [compound 182], the inhibition constant (Ki) came out at 0.07 µM.
The figure for `CCCC(c1ccc(C(=O)NCCC(=O)O)cc1)n1cc2cc(-c3ccc(C(C)(C)C)cc3)ccc2n1` (centres unmarked) [Compound #22, 3-(4-(1-(5-(4-(tert-Butyl)phenyl)-2H-indazol-2-yl)butyl)benzamido)propanoic acid] is 0.8 µM; for `COc1c(-c2ccc(C(F)(F)F)cc2C)ccc2c1cnn2[C@H](CC(C)C)c1ccc(C(=O)NCCC(=O)O)cc1` [compound 145, (R)-3-(4-(1-(4-Methoxy-5-(2-methyl-4-(trifluoromethyl)phenyl)-1H-indazol-1-yl)-3-methylbutyl)benzamido)propanoic acid] it is 1.85 µM.
The figure for `Cc1cc(C(F)(F)F)ccc1-c1ccc2c(cnn2C(CCC(F)(F)F)c2ccc(C(=O)NCCC(=O)O)cc2)c1` (centres unmarked) [Compound #44, 3-[[4-[4,4,4-Trifluoro-1-[5-[2-methyl-4-(trifluoromethyl)phenyl]indazol-1-yl]butyl]benzoyl]amino]propanoic acid] is 0.16 µM; for `Cc1cc(C(F)(F)F)ccc1-c1cc2cn(C(CC(C)C)c3ccc(C(=O)NCCC(=O)O)cc3)nc2cc1Cl` (centres unmarked) [Compound #30, 3-[[4-[1-[6-Chloro-5-[2-methyl-4-(trifluoromethyl)phenyl]indazol-2-yl]-3-methyl-butyl]benzoyl]amino]propanoic acid] it is 0.044 µM; for `O=C(O)CCNC(=O)c1ccc(C(CCc2ccc(Cl)cc2)n2cc3cc(-c4ccc(C(F)(F)F)cc4)ccc3n2)cc1` (centres unmarked) [compound 200] it is 0.08 µM.
For `Cc1cc(Cl)ccc1-c1ccc2c(cnn2C(CCC(F)(F)F)c2ccc(C(=O)NCCC(=O)O)cc2)c1` (centres unmarked) [Compound #40, 3-[[4-[1-[5-(4-Chloro-2-methyl-phenyl)indazol-1-yl]-4,4,4-trifluorobutyl]benzoyl]amino]propanoic acid], the Ki worked out at 0.49 µM.
Take `Cc1cc(Cl)ccc1-c1ccc2c(cnn2C(CCC2CCCCC2)c2ccc(C(=O)NCCC(=O)O)nc2)c1` (centres unmarked) [compound 210]: the Ki turned out to be 0.365 µM.
As for `O=C(O)CCNC(=O)c1ccc(C(CC2CC2)n2ncc3cc(-c4ccc(C(F)(F)F)cc4)ccc32)cc1` (centres unmarked) [compound 32], the Ki stood at 0.33 µM.
On to `Cc1cc(Cl)ccc1-c1cc2cnn(C(CC(C)C)c3ccc(C(=O)NCCC(=O)O)nc3)c2cc1Cl` (centres unmarked) [Compound #102, 3-[[5-[1-[6-Chloro-5-(4-chloro-2-methyl-phenyl)indazol-1-yl]-3-methyl-butyl]pyridine-2-carbonyl]amino]propanoic acid], for which the Ki is 0.55 µM.
In the case of `Cc1cc(Cl)ccc1-c1ccc2c(cnn2C(CC2CCCCC2)c2ccc(C(=O)NCCC(=O)O)nc2)c1` (centres unmarked) [compound 183] it was 0.35 µM.
The figure for `CC(C)(C)CC(c1ccc(C(=O)NCCC(=O)O)cc1)n1ncc2cc(-c3ccc(C(F)(F)F)cc3)ccc21` (centres unmarked) [compound 231] is 0.095 µM; for `Cc1cc(Cl)ccc1-c1ccc2c(cnn2C(CCC2CCCCC2)c2ccc(C(=O)NCCC(=O)O)cc2)c1` (centres unmarked) [compound 157] it is 0.25 µM.
In the case of `CC(C)CC(c1ccc(C(=O)NCCC(=O)O)cc1)n1ncc2cc(-c3ccccc3)ccc21` (centres unmarked) [Compound #4] it was 1.1 µM; in that of `Cc1cc(C(F)(F)F)ccc1-c1cc2cnn(C(CC(C)C)c3ccc(C(=O)NCCC(=O)O)cc3)c2cc1C` (centres unmarked) [Compound #93, 3-[[4-[3-Methyl-1-[6-methyl-5-[2-methyl-4-(trifluoromethyl)phenyl]indazol-1-yl]butyl]benzoyl]amino]propanoic acid], 0.036 µM.
Turning to `O=C(O)CCNC(=O)c1ccc(C(CC2CCCCC2)n2ncc3cc(-c4ccc(C(F)(F)F)cc4)ccc32)cc1` (centres unmarked) [compound 131], the inhibitory constant (Ki) turned out to be 0.31 µM.
As for `Cc1c(-c2ccc(C(F)(F)F)cc2Cl)ccc2nn(C(CC(C)C)c3ccc(C(=O)NCCC(=O)O)nc3)cc12` (centres unmarked) [Compound #154, 3-(5-(1-(5-(2-Chloro-4-(trifluoromethyl)phenyl)-4-methyl-2H-indazol-2-yl)-3-methylbutyl)picolinamido)propanoic acid], the Ki is 0.013 µM.
In the case of `CC(C)CC(c1ccc(C(=O)NCCC(=O)O)cc1)n1ncc2cc(-c3ccc(C(C)(C)C)cc3)ccc21` (single isomer, unassigned) [Compound #163] it was 0.465 µM; in that of `CC(C)CCn1cc(-c2ccc3c(cnn3C(CC(C)C)c3ccc(C(=O)NCCC(=O)O)cc3)c2)cn1` (centres unmarked) [compound 123], > 5.2 µM.
The figure for `Cc1cc(-c2ccc(C(C)(C)C)cc2)cc2cn(C(CC(C)C)c3ccc(C(=O)NCCC(=O)O)nc3)nc12` (centres unmarked) [compound 108] is 1.34 µM.
